From the supplement of paper PMC11986102

What was measured:
Assay in all cases: OD600 after 10 h growth (baseline-subtracted); higher = more bacterial growth (less inhibition)
[1] = tested on: Escherichia coli CFT073 (UPEC)
Procedure: (§1)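 Broth microdilution growth assay in Mueller Hinton broth, 100 µL in 96-well plates, inoculated 1:200 from OD600 0.1 overnight cultures by pinning, 37 °C with shaking at 800 rpm, 1:2 serial dilutions from 128 µg/mL (64 µg/mL for Ebastine). The read-out is OD600 after 10 h; curves were baseline-corrected by subtracting the minimum of the 2nd-4th measurements. Three biological replicates, with water and DMSO no-compound controls.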

[2] = tested on: Klebsiella pneumoniae MKP103
Procedure: as §1

[3] = tested on: Staphylococcus aureus Newman
Procedure: as §1

[4] = tested on: Pseudomonas aeruginosa PA14
Procedure: as §1

Escherichia coli IAI1 = tested on: Escherichia coli IAI1
Procedure: as §1

CC(=O)N[C@H](Cc1ccc2ccccc2c1)C(=O)N[C@H](Cc1ccc(Cl)cc1)C(=O)N[C@H](Cc1cccnc1)C(=O)N[C@@H](CO)C(=O)N[C@@H](Cc1ccc(O)cc1)C(=O)N[C@H](CCCNC(N)=O)C(=O)N[C@@H](CC(C)C)C(=O)N[C@@H](CCCNC(=N)N)C(=O)N1CCC[C@H]1C(=O)N[C@H](C)C(N)=O [Cetrorelix]
OD600 after 10 h growth
Details	Escherichia coli IAI1	[1]	[2]	[3]	[4]
0.1 µg/mL	0.865	0.804	0.674	1.08	0.741
0.2 µg/mL	0.872	0.832	0.679	1.08	0.742
0.5 µg/mL	0.829	0.8273	0.687	1.08	0.742
1 µg/mL	0.828	0.812	0.693	1.1	0.727
2 µg/mL	0.831	0.827	0.702	1.1	0.726
4 µg/mL	0.821	0.83	0.701	1.11	0.736
8 µg/mL	0.831	0.806	0.707	1.11	0.736
16 µg/mL	0.837	0.81	0.712	1.117	0.754
32 µg/mL	0.814	0.792	0.717	1.117	0.763
64 µg/mL	0.8	0.807	0.69	1.09	0.749
128 µg/mL	0.786	0.77	0.679	1.05	0.756

CC(C)(C)c1ccc(C(=O)CCCN2CCC(OC(c3ccccc3)c3ccccc3)CC2)cc1 [Ebastine]
OD600 after 10 h growth
Details	Escherichia coli IAI1	[1]	[2]	[3]	[4]
0.05 µg/mL	0.808	0.78	0.665	1.11	0.75
0.1 µg/mL	0.807	0.781	0.667	1.08	0.752
0.2 µg/mL	0.796	0.783	0.666	1.14	0.742
0.5 µg/mL	0.793	0.789	0.666	1.06	0.744
1 µg/mL	0.812	0.798	0.671	1.15	0.754
2 µg/mL	0.816	0.792	0.681	1.1	0.842
4 µg/mL	0.808	0.797	0.787	1.05	0.749
8 µg/mL	0.81	0.803	0.678	1.03	0.743
16 µg/mL	0.848	0.792	0.661	0.987	0.725
32 µg/mL	0.778	0.775	0.647	0.991	0.697
64 µg/mL	0.754	0.755	0.613	1.02	0.603

Cc1cn([C@H]2C[C@H](O)[C@@H](CO)O2)c(=O)[nH]c1=O [Thymidine]
OD600 after 10 h growth
Details	Escherichia coli IAI1	[1]	[2]	[3]	[4]
0.1 µg/mL	0.814	0.783	0.666	1.08	0.756
0.2 µg/mL	0.952	0.956	0.669	1.07	0.899
0.5 µg/mL	0.803	0.788	0.67	1.07	0.749
1 µg/mL	0.802	0.794	0.666	1.22	0.748
2 µg/mL	0.81	0.891	0.674	1.16	0.758
4 µg/mL	0.808	0.89	0.69	1.39	0.853
8 µg/mL	0.805	0.932	0.838	1.28	0.748
16 µg/mL	0.804	0.873	0.773	1.23	0.745
32 µg/mL	0.792	0.804	0.684	1.1	0.738
64 µg/mL	0.782	0.786	0.672	1.09	0.718
128 µg/mL	0.772	0.772	0.645	1.1	0.645
